According to US20240317739A1, “NOVEL UREA DERIVATIVE COMPOUND AS RON INHIBITOR” (LG CHEM, LTD., priority 2021, published 2024):

Experiments:
RON = RON (Homo sapiens, UniProt Q04912); experiment: Evaluation of inhibitory activity against RON (TR-FRET); format: biochemical; conditions: TR-FRET kinase assay, RON protein
Description: In order to measure the inhibitory activity of each of the compounds of Examples against RON, the IC50 of each of the compounds was measured using a Time-Resolved Fluorescence Energy Transfer Chemistry (TR-FRET).
(§1) Specifically, the compound was prepared to a concentration of 1 mM with 100% DMSO and was diluted 10 times in a stepwise manner through 3-fold dilution. 2 ul of the compound diluted in a stepwise manner was added to a 96-well-plate containing 48 ul of a 1×kinase reaction buffer (50 mM HEPES (pH 7.4), 0.01% Tween-20, 5 mM DTT, 0.5 mM Na3VO4, 2 mM EGTA, 10 mM MgCl2).
The RON protein was diluted to a concentration of 49.3 nM with an RON storage buffer (50 mM Tris-HCl (pH 7.5), 150 mM NaCl, 0.5 mM EDTA, 0.02% Triton X-100), and then diluted again to a concentration of 0.4 nM with a 1×kinase reaction buffer. As a substrate cocktail, a RON-specific substrate mixture (40 uM ULight-labeled Poly GT, 100 nM ATP) at a concentration 2 times the final reaction concentration.
(§2) Thereafter, a 384-well-plate was prepared, and 2.5 μl of each of the diluted compounds of Examples was added to a corresponding well of experimental group wells, and 2.5 μl of a 4% DMSO solution was dispensed into high control wells and low control wells.
(§3) Thereafter, 2.5 μL of 0.4 nM RON was dispensed into the high control wells and the experimental group wells, and 2.5 μL of a 1× kinase reaction buffer was added to the low control wells, and the RON and the reaction buffer were centrifuged at room temperature for 40 seconds at 1000 RPM, and then incubated at room temperature for 20 to 30 minutes. Then, 5 uL of a substrate cocktail (2×) was dispensed into all wells, centrifuged at room temperature for 40 seconds at 1000 RPM, and then incubated at room temperature for 60 minutes. Thereafter, 5 uL of 30 mM EDTA was added to all wells to terminate the reaction, and then incubated again at room temperature for 5 minutes. Thereafter, 5 uL of a 4× phosphotyrosine antibody (Perkin Elmer) containing europium was added to all wells, and then incubated at room temperature for 60 minutes. After the incubation, the 384-well-plate was read with a Vison plate reader. At this time, the excitation wavelength was 340 nm, and the emission wavelength was 620 nm and 665 nm. The IC50 value of the compound of each Example was derived using the GraphPd Prism7 program.

cMET = cMET (Homo sapiens, UniProt P08581); experiment: Evaluation of inhibitory activity against MET (TR-FRET); format: biochemical; conditions: TR-FRET kinase assay, cMET protein
Description: In addition, in order to measure the enzyme activity inhibition for cMET, the evaluation was performed in the same manner as the enzyme activity inhibition measurement experiment for the RON.
as §1, with “a 1× kinase” for “a 1×kinase”, “7.4), 0.05% BSA, 0.005%” for “7.4), 0.01%”, “Tween-20, 1” for “Tween-20, 5”, “mM MnCl2, 20” for “mM Na3VO4, 2 mM EGTA, 10”
The cMET protein was diluted to a concentration of 263 nM with a cMET storage buffer (50 mM Tris-HCl (pH 7.5), 150 mM NaCl, 0.05% Brij35, 1 mM DTT, 10% Glycerol), and then diluted again to a concentration of 2 nM with a 1× kinase reaction buffer. As a substrate cocktail, a MET-specific substrate mixture (5 uM TK peptide, […]) at a concentration 2 times the final reaction concentration.
as §2
as §3, with “of 2” for “of 0.4”, “nM cMET” for “nM RON”, “of 90” for “of 30”, “The […]” for “The IC50”

Sequence of RON (Q04912 25-1400, species assumed): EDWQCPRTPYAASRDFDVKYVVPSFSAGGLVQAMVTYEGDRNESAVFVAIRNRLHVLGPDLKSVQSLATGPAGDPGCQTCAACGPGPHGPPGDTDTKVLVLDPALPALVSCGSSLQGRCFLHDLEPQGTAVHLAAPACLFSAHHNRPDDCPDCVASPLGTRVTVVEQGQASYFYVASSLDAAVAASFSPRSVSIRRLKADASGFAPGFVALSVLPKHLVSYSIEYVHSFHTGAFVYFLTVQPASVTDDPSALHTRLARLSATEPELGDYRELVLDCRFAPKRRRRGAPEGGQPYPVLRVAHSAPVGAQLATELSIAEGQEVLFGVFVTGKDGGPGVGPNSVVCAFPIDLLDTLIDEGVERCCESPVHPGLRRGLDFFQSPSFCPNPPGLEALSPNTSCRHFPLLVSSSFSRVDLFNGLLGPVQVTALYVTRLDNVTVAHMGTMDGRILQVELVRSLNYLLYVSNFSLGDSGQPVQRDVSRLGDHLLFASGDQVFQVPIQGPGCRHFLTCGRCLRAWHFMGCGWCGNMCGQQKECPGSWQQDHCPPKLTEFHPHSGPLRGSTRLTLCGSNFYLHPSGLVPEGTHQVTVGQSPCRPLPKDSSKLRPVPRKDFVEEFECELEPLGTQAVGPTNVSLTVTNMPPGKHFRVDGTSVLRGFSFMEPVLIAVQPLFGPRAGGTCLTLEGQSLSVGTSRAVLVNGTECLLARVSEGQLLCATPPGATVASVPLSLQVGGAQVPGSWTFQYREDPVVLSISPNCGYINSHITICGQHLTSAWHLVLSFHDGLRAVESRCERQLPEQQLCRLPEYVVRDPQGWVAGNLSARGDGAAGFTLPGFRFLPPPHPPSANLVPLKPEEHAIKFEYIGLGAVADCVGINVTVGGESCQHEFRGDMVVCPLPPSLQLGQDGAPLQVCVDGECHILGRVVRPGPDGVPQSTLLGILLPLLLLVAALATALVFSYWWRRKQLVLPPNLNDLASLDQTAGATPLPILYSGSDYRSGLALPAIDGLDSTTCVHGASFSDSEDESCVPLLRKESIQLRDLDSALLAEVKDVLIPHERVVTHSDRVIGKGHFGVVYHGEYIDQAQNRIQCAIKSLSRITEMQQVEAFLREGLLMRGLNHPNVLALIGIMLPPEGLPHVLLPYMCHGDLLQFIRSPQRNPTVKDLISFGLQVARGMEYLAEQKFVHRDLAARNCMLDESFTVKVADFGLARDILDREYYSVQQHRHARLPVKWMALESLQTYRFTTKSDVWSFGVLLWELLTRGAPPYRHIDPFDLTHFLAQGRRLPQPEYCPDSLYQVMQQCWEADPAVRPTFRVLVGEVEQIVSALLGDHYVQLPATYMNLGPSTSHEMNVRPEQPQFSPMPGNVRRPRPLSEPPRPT
Sequence of cMET (P08581 25-1390): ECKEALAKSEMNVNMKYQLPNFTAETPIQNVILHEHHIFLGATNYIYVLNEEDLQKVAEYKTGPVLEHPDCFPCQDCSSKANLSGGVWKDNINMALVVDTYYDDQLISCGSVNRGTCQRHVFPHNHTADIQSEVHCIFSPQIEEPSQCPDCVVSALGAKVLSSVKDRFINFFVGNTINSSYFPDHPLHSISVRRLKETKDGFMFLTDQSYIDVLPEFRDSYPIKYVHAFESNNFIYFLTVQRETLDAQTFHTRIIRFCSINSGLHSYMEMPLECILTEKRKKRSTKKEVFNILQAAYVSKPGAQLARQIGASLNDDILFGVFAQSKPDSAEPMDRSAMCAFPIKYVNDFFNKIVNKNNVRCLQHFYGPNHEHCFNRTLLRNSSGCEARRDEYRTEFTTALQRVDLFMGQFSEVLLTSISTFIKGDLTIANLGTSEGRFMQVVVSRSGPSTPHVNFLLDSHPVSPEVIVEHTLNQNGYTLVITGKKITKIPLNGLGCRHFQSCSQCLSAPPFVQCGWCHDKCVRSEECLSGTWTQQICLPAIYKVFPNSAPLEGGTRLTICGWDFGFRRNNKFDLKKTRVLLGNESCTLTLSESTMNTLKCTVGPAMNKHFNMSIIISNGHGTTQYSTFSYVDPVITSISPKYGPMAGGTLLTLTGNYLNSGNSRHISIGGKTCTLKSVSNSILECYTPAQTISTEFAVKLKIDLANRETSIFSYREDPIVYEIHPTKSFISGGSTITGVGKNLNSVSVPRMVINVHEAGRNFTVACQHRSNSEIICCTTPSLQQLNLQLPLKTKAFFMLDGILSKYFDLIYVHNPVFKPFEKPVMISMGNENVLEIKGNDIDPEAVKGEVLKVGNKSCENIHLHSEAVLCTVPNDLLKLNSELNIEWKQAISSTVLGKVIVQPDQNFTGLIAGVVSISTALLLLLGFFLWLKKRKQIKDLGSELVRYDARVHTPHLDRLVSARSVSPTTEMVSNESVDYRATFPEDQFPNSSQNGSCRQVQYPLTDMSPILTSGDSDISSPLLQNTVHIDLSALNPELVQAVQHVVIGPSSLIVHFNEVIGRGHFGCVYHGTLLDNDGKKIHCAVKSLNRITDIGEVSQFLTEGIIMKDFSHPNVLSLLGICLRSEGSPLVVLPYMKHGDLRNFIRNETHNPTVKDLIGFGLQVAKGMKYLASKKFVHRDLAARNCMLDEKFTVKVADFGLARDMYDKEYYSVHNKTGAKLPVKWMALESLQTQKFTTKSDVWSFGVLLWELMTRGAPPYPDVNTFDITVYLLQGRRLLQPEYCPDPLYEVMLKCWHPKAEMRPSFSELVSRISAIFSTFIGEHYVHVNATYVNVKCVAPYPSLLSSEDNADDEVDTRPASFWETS

| Structure (SMILES) | IC50 (RON) | IC50 (cMET) |
| --- | --- | --- |
| CC(C)n1c(=O)[nH]c2nccc(Oc3ccc(NC(=O)c4cnn(-c5ccc(F)cn5)c4C(F)(F)F)cc3F)c21 [Example 21, N-(3-fluoro-4-((1-isopropyl-2-oxo-2,3-dihydro-1H-imidazo[4,5-b]pyridine-7-yl)oxy)phenyl)-1-(5-fluoropyridine-2-yl)-5-(trifluoromethyl)-1H-pyrazole-4-carboxamide] | < 50 nM | > 5000 nM |
| CC(C)n1c(=O)[nH]c2nccc(Oc3ccc(NC(=O)c4cnn(-c5ncccn5)c4C(F)(F)F)cc3F)c21 [Example 25, N-(3-fluoro-4-((1-isopropyl-2-oxo-2,3-dihydro-1H-imidazo[4,5-b]pyridine-7-yl)oxy)phenyl)-1-(pyrimidine-2-yl)-5-(trifluoromethyl)-1H-pyrazole-4-carboxamide] | < 50 nM | 500 to 5000 nM |
| CCc1c(C(=O)Nc2ccc(Oc3ccnc4[nH]c(=O)n(C5CCCC5)c34)c(F)c2)cnn1-c1cncnc1 [Example 6, N-(4-((1-cyclopentyl-2-oxo-2,3-dihydro-1H-imidazo[4,5-b]pyridine-7-yl)oxy)-3-fluorophenyl)-5-ethyl-1-(pyrimidine-5-yl)-1H-pyrazole-4-carboxamide] | 50 to 500 nM | > 5000 nM |
| CC(C)n1c(=O)[nH]c2nccc(Oc3ccc(NC(=O)c4cnn(-c5cc(F)ccn5)c4C(F)(F)F)cc3F)c21 [Example 38, N-(3-fluoro-4-((1-isopropyl-2-oxo-2,3-dihydro-1H-imidazo[4,5-b]pyridine-7-yl)oxy)phenyl)-1-(4-fluoropyridine-2-yl)-5-(trifluoromethyl)-1H-pyrazole-4-carboxamide] | < 50 nM | > 5000 nM |
| CC(C)n1c(=O)[nH]c2nccc(Oc3ccc(NC(=O)c4cnn(-c5ncccc5Br)c4C(F)(F)F)cc3F)c21 [Example 19, 1-(3-bromopyridine-2-yl)-N-(3-fluoro-4-((1-isopropyl-2-oxo-2,3-dihydro-1H-imidazo[4,5-b]pyridine-7-yl)oxy)phenyl)-5-(trifluoromethyl)-1H-pyrazole-4-carboxamide] | < 50 nM | 500 to 5000 nM |
| CC(C)n1c(=O)[nH]c2nccc(Oc3ccc(NC(=O)c4cnn(-c5ccncc5)c4C(F)(F)F)cc3F)c21 [Example 24, N-(3-fluoro-4-((1-isopropyl-2-oxo-2,3-dihydro-1H-imidazo[4,5-b]pyridine-7-yl)oxy)phenyl)-1-(pyridine-4-yl)-5-(trifluoromethyl)-1H-pyrazole-4-carboxamide] | < 50 nM | 500 to 5000 nM |
| CCc1c(C(=O)Nc2ccc(Oc3ccnc4[nH]c(=O)[nH]c34)c(F)c2)cnn1-c1cncnc1 [Example 1, 5-ethyl-N-(3-fluoro-4-((2-oxo-2,3-dihydro-1H-imidazo[4,5-b]pyridine-7-yl)oxy)phenyl)-1-(pyrimidine-5-yl)-1H-pyrazole-4-carboxamide] | > 5000 nM | > 5000 nM |
| Cc1ccnc(-n2ncc(C(=O)Nc3ccc(Oc4ccnc5[nH]c(=O)n(C(C)C)c45)c(F)c3)c2C(F)(F)F)n1 [Example 26, N-(3-fluoro-4-((1-isopropyl-2-oxo-2,3-dihydro-1H-imidazo[4,5-b]pyridine-7-yl)oxy)phenyl)-1-(4-methylpyrimidine-2-yl)-5-(trifluoromethyl)-1H-pyrazole-4-carboxamide] | < 50 nM | 500 to 5000 nM |

The remaining lines, values ahead:

| IC50 (RON) | IC50 (cMET) | Structure (SMILES) |
| --- | --- | --- |
| < 50 nM | 500 to 5000 nM | Cc1cccc(-n2ncc(C(=O)Nc3ccc(Oc4ccnc5[nH]c(=O)n(C(C)C)c45)c(F)c3)c2C(F)(F)F)n1 [Example 18, N-(3-fluoro-4-((1-isopropyl-2-oxo-2,3-dihydro-1H-imidazo[4,5-b]pyridine-7-yl)oxy)phenyl)-1-(6-methylpyridine-2-yl)-5-(trifluoromethyl)-1H-pyrazole-4-carboxamide] |
| < 50 nM | 500 to 5000 nM | CC(C)n1c(=O)[nH]c2nccc(Oc3ccc(NC(=O)c4cnn(-c5ccncn5)c4C(F)(F)F)cc3F)c21 [Example 27, N-(3-fluoro-4-((1-isopropyl-2-oxo-2,3-dihydro-1H-imidazo[4,5-b]pyridine-7-yl)oxy)phenyl)-1-(pyrimidine-4-yl)-5-(trifluoromethyl)-1H-pyrazole-4-carboxamide] |
| < 50 nM | 500 to 5000 nM | Cc1cnc(-n2ncc(C(=O)Nc3ccc(Oc4ccnc5[nH]c(=O)n(C(C)C)c45)c(F)c3)c2C(F)(F)F)nc1 [Example 36, N-(3-fluoro-4-((1-isopropyl-2-oxo-2,3-dihydro-1H-imidazo[4,5-b]pyridine-7-yl)oxy)phenyl)-1-(5-methylpyrimidine-2-yl)-5-(trifluoromethyl)-1H-pyrazole-4-carboxamide] |
| < 50 nM | 500 to 5000 nM | O=C(Nc1ccc(Oc2ccnc3[nH]c(=O)n(C4CCOCC4)c23)c(F)c1)c1cnn(-c2ncccc2F)c1C(F)(F)F [Example 39, N-(3-fluoro-4-((2-oxo-1-(tetrahydro-2H-pyran-4-yl)-2,3-dihydro-1H-imidazo[4,5-b]pyridine-7-yl)oxy)phenyl)-1-(3-fluoropyridine-2-yl)-5-(trifluoromethyl)-1H-pyrazole-4-carboxamide] |
| < 50 nM | 500 to 5000 nM | CC(C)n1c(=O)[nH]c2nccc(Oc3ccc(NC(=O)c4cnn(-c5ncccc5Cl)c4C(F)(F)F)cc3F)c21 [Example 10, 1-(3-chloropyridine-2-yl)-N-(3-fluoro-4-((1-isopropyl-2-oxo-2,3-dihydro-1H-imidazo[4,5-b]pyridine-7-yl)oxy)phenyl)-5-(trifluoromethyl)-1H-pyrazole-4-carboxamide] |
| < 50 nM | 500 to 5000 nM | COc1ccnc(-n2ncc(C(=O)Nc3ccc(Oc4ccnc5[nH]c(=O)n(C(C)C)c45)c(F)c3)c2C(F)(F)F)c1 [Example 33, N-(3-fluoro-4-((1-isopropyl-2-oxo-2,3-dihydro-1H-imidazo[4,5-b]pyridine-7-yl)oxy)phenyl)-1-(4-methoxypyridine-2-yl)-5-(trifluoromethyl)-1H-pyrazole-4-carboxamide] |
| < 50 nM | 500 to 5000 nM | CC(C)n1c(=O)[nH]c2nccc(Oc3ccc(NC(=O)c4cnn(-c5cccnc5)c4C(F)(F)F)cc3F)c21 [Example 23, N-(3-fluoro-4-((1-isopropyl-2-oxo-2,3-dihydro-1H-imidazo[4,5-b]pyridine-7-yl)oxy)phenyl)-1-(pyridine-3-yl)-5-(trifluoromethyl)-1H-pyrazole-4-carboxamide] |
| < 50 nM | 500 to 5000 nM | COc1cccnc1-n1ncc(C(=O)Nc2ccc(Oc3ccnc4[nH]c(=O)n(C(C)C)c34)c(F)c2)c1C(F)(F)F [Example 28, N-(3-fluoro-4-((1-isopropyl-2-oxo-2,3-dihydro-1H-imidazo[4,5-b]pyridine-7-yl)oxy)phenyl)-1-(3-methoxypyridine-2-yl)-5-(trifluoromethyl)-1H-pyrazole-4-carboxamide] |
